Measured values as given in ChEMBL document CHEMBL4673280, “Discovery and SAR studies of 2-alkyl-3-phenyl-2,4,5,6,7,8-hexahydropyrazolo[3,4-d]azepines as 5-HT inhibitors leading to the identification of a clinical candidate” (Bioorg Med Chem Lett, 2021).
Values joined by “and” are separate entries in the source; they are usually repeats but may differ in a detail not shown here. Equal entries are not always repeated. Active and inactive are the calls of the source. The rule behind the calls is not given here.

Key:
[1] = Ex vivo receptor occupancy at 5-HT2A receptor in orally dosed rat frontal cortex measured after 1 hr; format: functional; settings: po
[2] = In vivo antagonist activity at 5-HT2A receptor in po dosed mouse assessed as inhibition of DOI-induced head twitch measured after 60 mins; format: functional; settings: 1 h
Rattus norvegicus = assay: In vivo antagonist activity at 5-HT7 receptor in rat assessed as maximal inhibition of 5-CT induced hypothermia at 0.3 mg/kg, po compound administered 20 mins prior to 5-CT injection; format: functional, organism-based
[3] = In vivo antagonist activity at 5-HT7 receptor in po dosed rat assessed as inhibition of 5-CT induced hypothermia compound administered 20 mins prior to 5-CT injection and measured after 1 hr; format: functional; settings: 1.333 h, time 80 min
[4] = Ratio of drug level in rat brain to plasma at 10 mg/kg, po; format: ADME, organism-based; settings: brain and plasma, read-out: BPR
[5] = Cmax in non-human primates at 5 mg/kg, po; format: ADME, organism-based; parameters: route oral, dose 5 mg/kg; settings: in vivo
[6] = Half life in non-human primates at 5 mg/kg, po; format: ADME, organism-based; settings: in vivo
[7] = Tmax in non-human primates at 5 mg/kg, po; format: ADME, organism-based; settings: in vivo
[8] = Tmax in dog at 10 mg/kg, po; format: ADME, organism-based, Canis lupus familiaris; settings: in vivo
[9] = Half life in rat brain at 10 mg/kg, po; format: ADME, organism-based
[10] = Oral bioavailability in rat; format: ADME, organism-based; settings: in vivo
[11] = Oral bioavailability in mouse; format: ADME, organism-based; settings: in vivo
[12] = Oral bioavailability in dog; format: ADME, organism-based, Canis lupus familiaris; settings: in vivo
[13] = Oral bioavailability in monkey; format: ADME, organism-based, Macaca mulatta; settings: rhesus monkey, in vivo
[14] = Cmax in dog at 10 mg/kg, po; format: ADME, organism-based, Canis lupus familiaris; parameters: route oral, dose 10 mg/kg; settings: in vivo
[15] = Half life in dog at 10 mg/kg, po; format: ADME, organism-based, Canis lupus familiaris; settings: in vivo
[16] = Clearance in rat brain at 10 mg/kg, po; format: ADME, organism-based; settings: in vivo
[17] = Cmax in rat brain at 10 mg/kg, po; format: ADME, organism-based; parameters: route oral, dose 10 mg/kg
[18] = AUC in rat brain at 10 mg/kg, po; format: ADME, organism-based; parameters: dose 10 mg/kg
[19] = Tmax in rat brain at 10 mg/kg, po; format: ADME, organism-based
[20] = Half life in rat plasma at 10 mg/kg, po; format: ADME, organism-based
[21] = Clearance in rat plasma at 10 mg/kg, po; format: ADME, organism-based
[22] = Tmax in rat plasma at 10 mg/kg, po; format: ADME, organism-based
[23] = Cmax in rat plasma at 10 mg/kg, po; format: ADME, organism-based; parameters: route oral, dose 10 mg/kg
[24] = AUC in rat plasma at 10 mg/kg, po; format: ADME, organism-based; parameters: dose 10 mg/kg
[25] = Half life in rat at 3 mg/kg, sc; format: ADME, organism-based; settings: in vivo
[26] = Clearance in rat at 3 mg/kg, sc; format: ADME, organism-based; settings: in vivo
[27] = AUC in rat at 3 mg/kg, sc; format: ADME, organism-based; parameters: dose 3 mg/kg; settings: in vivo
[28] = Cmax in rat at 3 mg/kg, sc; format: ADME, organism-based; parameters: route subcutaneous, dose 3 mg/kg; settings: in vivo
[29] = Tmax in rat at 3 mg/kg, sc; format: ADME, organism-based; settings: in vivo
[30] = Half life in rat at 3 mg/kg, po; format: ADME, organism-based; settings: in vivo
[31] = AUC in rat at 3 mg/kg, po; format: ADME, organism-based; parameters: dose 3 mg/kg; settings: in vivo
[32] = Clearance in rat at 3 mg/kg, po; format: ADME, organism-based; settings: in vivo
[33] = Cmax in rat at 3 mg/kg, po; format: ADME, organism-based; parameters: route oral, dose 3 mg/kg; settings: in vivo
[34] = Half life in rat at 1 mg/kg, iv; format: ADME, organism-based; settings: in vivo
[35] = Tmax in rat at 3 mg/kg, po; format: ADME, organism-based; settings: in vivo
[36] = Clearance in rat at 1 mg/kg, iv; format: ADME, organism-based; settings: in vivo
[37] = AUC in rat at 1 mg/kg, iv; format: ADME, organism-based; parameters: dose 1 mg/kg; settings: in vivo
Cytochrome P450 = assay: Inhibition of CYP450 (unknown origin) up to 10 uM; format: ADME, protein assay; settings: human
[38] = Metabolic stability in rat liver microsomes assessed as half life; format: ADME, Microsome
[39] = Metabolic stability in human liver microsomes assessed as half life; format: ADME, Microsome
[40] = Protein binding in human plasma assessed as unbound fraction; format: ADME, cell-free
[41] = Protein binding in rat plasma assessed as unbound fraction; format: ADME, cell-free
[42] = target: 5-hydroxytryptamine receptor 7 (Homo sapiens, UniProt P34969); assay: Inverse agonist activity at 5-HT7 receptor (unknown origin) by cAMP functional assay
[43] = target: T1, 5-hydroxytryptamine receptor 2A (Homo sapiens, UniProt P28223); assay: Antagonist activity at 5-HT2A receptor (unknown origin) by calcium mobilization assay; format: functional; settings: filed as antagonist
[44] = target: T2, Adrenergic receptor alpha-1 (Rattus norvegicus, UniProt P15823+P23944+P43140); assay: Displacement of […] from alpha1 adrenergic receptor in rat cortex membrane incubated for 60 mins by competitive radioligand binding assay; format: cell membranes
T2 sequence (P15823 whole entry): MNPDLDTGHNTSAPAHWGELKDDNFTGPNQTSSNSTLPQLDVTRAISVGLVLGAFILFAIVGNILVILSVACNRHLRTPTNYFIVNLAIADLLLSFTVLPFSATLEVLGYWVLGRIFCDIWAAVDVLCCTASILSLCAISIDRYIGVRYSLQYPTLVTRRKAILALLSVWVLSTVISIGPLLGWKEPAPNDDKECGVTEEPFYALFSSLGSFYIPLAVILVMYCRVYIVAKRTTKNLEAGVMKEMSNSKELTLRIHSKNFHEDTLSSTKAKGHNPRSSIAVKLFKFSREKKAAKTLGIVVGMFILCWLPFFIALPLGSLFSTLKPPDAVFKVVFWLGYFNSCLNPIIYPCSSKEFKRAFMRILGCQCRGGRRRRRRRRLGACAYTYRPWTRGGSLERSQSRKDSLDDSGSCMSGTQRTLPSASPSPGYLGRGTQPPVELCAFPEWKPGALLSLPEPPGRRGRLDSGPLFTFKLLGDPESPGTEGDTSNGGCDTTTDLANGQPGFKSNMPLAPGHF
T2 sequence (P23944 whole entry): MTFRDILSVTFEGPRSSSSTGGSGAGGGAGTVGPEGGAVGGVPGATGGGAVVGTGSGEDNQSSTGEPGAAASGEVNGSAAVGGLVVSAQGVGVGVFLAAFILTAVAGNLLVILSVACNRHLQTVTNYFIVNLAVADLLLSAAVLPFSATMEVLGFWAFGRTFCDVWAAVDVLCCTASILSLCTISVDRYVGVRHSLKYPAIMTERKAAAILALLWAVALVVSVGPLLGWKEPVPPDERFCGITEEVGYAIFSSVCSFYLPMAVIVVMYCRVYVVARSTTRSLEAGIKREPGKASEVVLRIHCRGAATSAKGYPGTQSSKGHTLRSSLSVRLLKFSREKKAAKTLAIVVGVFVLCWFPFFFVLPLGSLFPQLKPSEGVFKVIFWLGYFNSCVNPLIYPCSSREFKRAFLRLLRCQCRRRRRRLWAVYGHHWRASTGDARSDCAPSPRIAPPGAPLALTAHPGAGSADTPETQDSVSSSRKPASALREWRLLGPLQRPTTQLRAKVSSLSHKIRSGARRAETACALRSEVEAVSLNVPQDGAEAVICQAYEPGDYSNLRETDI
T2 sequence (P43140 whole entry): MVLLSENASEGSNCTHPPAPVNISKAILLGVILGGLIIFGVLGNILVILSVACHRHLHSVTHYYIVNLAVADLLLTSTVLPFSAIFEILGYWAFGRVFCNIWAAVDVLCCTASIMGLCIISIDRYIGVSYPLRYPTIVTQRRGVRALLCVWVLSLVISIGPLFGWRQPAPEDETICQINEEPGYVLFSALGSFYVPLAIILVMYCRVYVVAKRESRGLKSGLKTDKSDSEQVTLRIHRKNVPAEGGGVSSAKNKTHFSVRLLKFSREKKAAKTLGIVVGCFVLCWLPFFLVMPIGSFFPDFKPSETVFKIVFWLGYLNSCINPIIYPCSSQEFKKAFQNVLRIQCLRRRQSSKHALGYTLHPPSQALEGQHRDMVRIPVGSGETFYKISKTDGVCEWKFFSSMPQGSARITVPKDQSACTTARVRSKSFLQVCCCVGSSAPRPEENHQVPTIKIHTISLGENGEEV

[45] = target: T3, 5-hydroxytryptamine receptor 2C (Homo sapiens, UniProt P28335); assay: Displacement of [3H]-ketanserin from human 5-HT2C receptor by competitive radioligand binding assay
T3 sequence (P28335 whole entry): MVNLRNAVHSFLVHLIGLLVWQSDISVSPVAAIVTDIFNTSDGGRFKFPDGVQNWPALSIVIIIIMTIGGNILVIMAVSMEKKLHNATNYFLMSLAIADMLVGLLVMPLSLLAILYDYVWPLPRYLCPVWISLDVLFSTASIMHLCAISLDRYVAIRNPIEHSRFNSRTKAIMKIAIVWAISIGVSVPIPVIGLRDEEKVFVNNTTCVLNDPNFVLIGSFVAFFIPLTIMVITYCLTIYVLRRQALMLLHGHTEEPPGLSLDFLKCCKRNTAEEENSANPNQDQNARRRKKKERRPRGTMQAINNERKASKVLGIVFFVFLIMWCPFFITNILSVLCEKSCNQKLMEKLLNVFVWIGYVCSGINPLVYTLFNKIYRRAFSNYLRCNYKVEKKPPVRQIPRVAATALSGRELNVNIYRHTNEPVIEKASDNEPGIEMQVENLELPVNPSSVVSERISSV

[46] = target: 5-hydroxytryptamine receptor 2B (Homo sapiens, UniProt P41595); assay: Displacement of [3H]-ketanserin from human 5-HT2B receptor by competitive radioligand binding assay
[47] = target: T1, 5-hydroxytryptamine receptor 2A; assay: Displacement of [3H]-ketanserin from human 5-HT2A receptor by competitive radioligand binding assay
[48] = target: 5-hydroxytryptamine receptor 7 (Rattus norvegicus, UniProt P32305); assay: Displacement of [3H]-CT from rat 5-HT7 receptor expressed in HEK293 cells by competitive radioligand binding assay; format: cell-based
[49] = Efflux ratio of apparent permeability in human Caco2 cells; format: ADME, cell-based; settings: Caco-2
[50] = Toxicity in rat assessed as effect on body temperature at 0.03 to 1 mg/kg, po; format: organism-based; settings: in vivo, dose 0.03-1 mg/kg
[51] = Plasma concentration that yields to require for maximal inhibition of 5-HT7 receptor mediated hypothermia in 5-CT-stimulated rat at 0.3 mg/kg, po compound administered 20 mins prior to 5-CT injection; format: organism-based
[52] = Ratio of plasma concentration that yields to require for inhibition of alpha1 adrenergic receptor-mediated mydriasis in phenylephrine-stimulated rat to MED for inhibition of 5-HT7 receptor mediated hypothermia in po dosed 5-CT-stimulated rat; format: organism-based

T1 sequence (P28223 whole entry): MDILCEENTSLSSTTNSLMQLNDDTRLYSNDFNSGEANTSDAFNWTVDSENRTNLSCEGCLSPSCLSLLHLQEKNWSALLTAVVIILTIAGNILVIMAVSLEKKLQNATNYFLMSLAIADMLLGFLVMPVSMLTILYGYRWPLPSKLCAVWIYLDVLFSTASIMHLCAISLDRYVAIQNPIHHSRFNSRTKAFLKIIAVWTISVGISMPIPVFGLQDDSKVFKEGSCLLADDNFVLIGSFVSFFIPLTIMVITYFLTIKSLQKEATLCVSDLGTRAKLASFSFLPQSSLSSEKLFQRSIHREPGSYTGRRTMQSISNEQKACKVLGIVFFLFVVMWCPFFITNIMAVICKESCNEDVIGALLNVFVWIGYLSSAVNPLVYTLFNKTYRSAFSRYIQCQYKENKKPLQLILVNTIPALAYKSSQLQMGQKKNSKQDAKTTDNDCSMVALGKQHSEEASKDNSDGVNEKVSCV
Sequence of 5-hydroxytryptamine receptor 2B (P41595 whole entry): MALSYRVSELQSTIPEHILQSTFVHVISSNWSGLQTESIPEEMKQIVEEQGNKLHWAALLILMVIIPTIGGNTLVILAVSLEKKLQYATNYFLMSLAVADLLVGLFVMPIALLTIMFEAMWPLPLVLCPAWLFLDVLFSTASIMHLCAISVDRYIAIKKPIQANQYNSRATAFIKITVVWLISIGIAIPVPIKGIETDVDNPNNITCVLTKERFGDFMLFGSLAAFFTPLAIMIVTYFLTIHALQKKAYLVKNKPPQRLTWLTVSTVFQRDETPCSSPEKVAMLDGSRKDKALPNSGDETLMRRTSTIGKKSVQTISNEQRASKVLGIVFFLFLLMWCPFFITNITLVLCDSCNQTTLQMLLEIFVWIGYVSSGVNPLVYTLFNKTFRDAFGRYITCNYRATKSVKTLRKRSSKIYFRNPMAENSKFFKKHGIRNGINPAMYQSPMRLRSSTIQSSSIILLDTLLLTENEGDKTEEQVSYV
Sequence of 5-hydroxytryptamine receptor 7 (Homo sapiens, UniProt P34969) (P34969 whole entry): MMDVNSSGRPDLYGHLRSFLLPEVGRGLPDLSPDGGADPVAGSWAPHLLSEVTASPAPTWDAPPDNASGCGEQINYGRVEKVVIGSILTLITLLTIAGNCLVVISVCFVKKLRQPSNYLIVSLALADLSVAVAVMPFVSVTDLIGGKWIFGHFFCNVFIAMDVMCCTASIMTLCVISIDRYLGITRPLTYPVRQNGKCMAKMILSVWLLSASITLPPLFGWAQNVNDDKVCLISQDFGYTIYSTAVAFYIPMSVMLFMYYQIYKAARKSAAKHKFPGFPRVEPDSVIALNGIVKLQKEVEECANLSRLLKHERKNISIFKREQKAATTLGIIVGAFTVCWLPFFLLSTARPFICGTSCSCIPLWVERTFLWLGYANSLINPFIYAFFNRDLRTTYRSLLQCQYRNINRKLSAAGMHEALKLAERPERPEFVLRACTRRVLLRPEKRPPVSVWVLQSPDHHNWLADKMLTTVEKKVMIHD
Sequence of 5-hydroxytryptamine receptor 7 (Rattus norvegicus, UniProt P32305) (P32305 whole entry): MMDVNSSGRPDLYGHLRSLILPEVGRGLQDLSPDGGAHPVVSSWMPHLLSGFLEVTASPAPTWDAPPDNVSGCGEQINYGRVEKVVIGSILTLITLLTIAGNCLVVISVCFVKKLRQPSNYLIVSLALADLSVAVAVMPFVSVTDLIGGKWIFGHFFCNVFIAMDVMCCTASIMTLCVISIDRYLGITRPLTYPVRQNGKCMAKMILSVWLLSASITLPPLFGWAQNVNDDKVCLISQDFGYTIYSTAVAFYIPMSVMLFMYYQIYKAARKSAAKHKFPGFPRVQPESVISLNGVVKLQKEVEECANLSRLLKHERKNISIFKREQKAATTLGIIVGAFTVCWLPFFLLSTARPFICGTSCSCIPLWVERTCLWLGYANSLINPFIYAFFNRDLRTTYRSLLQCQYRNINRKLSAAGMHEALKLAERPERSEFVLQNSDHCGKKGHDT

CC(C)n1nc2c(c1-c1ccc(F)cc1)CCNCC2
ED50 [1]: 0.8 mg/kg | ED50 [2]: 0.3 mg/kg | inhibition (Rattus norvegicus): Active | ED50 [3]: 0.05 mg/kg | Kp [4]: > 1 | Cmax [5]: 300 ng/mL | half-life [6]: 11.4 h | Tmax [7]: 3 h | Tmax [8]: 0.5 h | half-life [9]: 6.3 h | bioavailability [10]: 100% | bioavailability [11]: 98% | bioavailability [12]: 98% | bioavailability [13]: 72% | Cmax [14]: 2000 ng/mL | half-life [15]: 10.6 h | CL [16]: 0.1 L/h | Cmax [17]: 1680 ng/mL and 6.1 µM | AUC [18]: 89 µM·h | Tmax [19]: 1 h | half-life [20]: 6 h | CL/F [21]: 3.33 mL/min | Tmax [22]: 1 h | Cmax [23]: 1080 ng/mL and 3.9 µM | AUC [24]: 57 µM·h | half-life [25]: 3.9 h | CL/F [26]: 6.67 mL/min | AUC [27]: 7.7 µM·h | Cmax [28]: 260 ng/mL and 940 nM | Tmax [29]: 0.75 h | half-life [30]: 4.3 h | AUC [31]: 9.2 µM·h | CL/F [32]: 6.67 mL/min | Cmax [33]: 190 ng/mL and 700 nM | half-life [34]: 3.4 h | Tmax [35]: 1.7 h | clearance [36]: 6.67 mL/min | AUC [37]: 2.8 µM·h | inhibition (INH) (Cytochrome P450): Not Active | half-life [38]: > 1 h | half-life [39]: > 1 h | fraction unbound [40]: 0.3 | fraction unbound [41]: 0.2 | IC50 [42]: 100 nM | pKb [43]: 8.1 | Ki [44]: 170 nM | Ki [45]: 49 nM | Ki [46]: 19 nM | Ki [47]: 8 nM | Ki [48]: 8 nM | efflux ratio [49]: 1.3 | Activity [50]: Non-Toxic | concentration at 20 min [51]: 27 ng/mL | selectivity ratio [52]: 30
